Patent publication US20260215418A1, “HYDROCARBON ALCOHOLS AND THEIR DERIVATIVES AS SYNERGISTS IN PESTICIDE ACTIVITY” (priority 2022, published 2026)

How the values were obtained:
Blattella germanica = test: Contact test on non-porous tile, Blattella germanica; format: in vivo; settings: 24 h; for Mortality %/time (h) (application): Table 37, Blattella germanica, concentrations in mg/ml in label
Procedure: 1 ml of Composition 36 was distributed on the tile. […] 1 ml of Composition 37 was distributed on a tile.

Blatta lateralis = test: Contact test on non-porous tile, Blatta lateralis; format: in vivo; parameters: Mortality %: concentration or dose not given beside the values; settings: for Mortality %: 25° C, insects on treated tile; for Mortality %/time (h) (application): Table 37, concentrations in mg/ml in label
Procedure: 1 ml of Composition 24 was distributed on the tile. […] 1 ml of Composition 20c was distributed on a tile. […] 1 ml of Composition 20d was distributed on a tile.
1 ml of Composition 24 was distributed on the tile. […] 1 ml of Composition 28 was distributed on a tile. […] Each experiment (A-B) was conducted in duplicate.
1 ml of Composition 24 was distributed on the tile. […] 1 ml of Composition 21 was distributed on a tile.
1 ml of Composition 4b was distributed on the tile. […] 1 ml of Composition 31c was distributed on a tile. […] 1 ml of Composition 31d was distributed on a tile. […] 1 ml of Composition 31d was distributed on a tile.
1 ml of Composition 24 was distributed on the tile. […] 1 ml of Composition 35 was distributed on a tile. […] 1 ml of Composition 40b was distributed on a tile. […] 1 ml of Composition 42 was distributed on a tile.

Musca domestica L. = test: Contact test on non-porous tile, Musca domestica; format: in vivo; settings: for synergizing effect on Cypermethrin: synergist applied with Cypermethrin; for mortality at 680 µg/mL: 0.68 mg/ml
Procedure: 1 ml of Composition 1 was applied to the tile. […] 1 ml of Composition 8a was distributed on the tile. […] 1 ml of Composition 8a was distributed on a tile. […] At the end of the 30 minutes, the flies were transferred to an untreated area.
1 ml of Composition 3 was applied to the tile. […] 1 ml of Composition 8c was distributed on the tile. […] 1 ml of Composition 8c was distributed on a tile. […] At the end of the 30 minutes, the flies were transferred to an untreated area.
1 ml of Composition 9a was distributed on the tile. […] 1 ml of Composition 9a was distributed on a tile. […] At the end of the 30 minutes, the flies were transferred to an untreated area. […] 1 ml of Composition 10a was distributed on the tile. […] 1 ml of Composition 10a was distributed on a tile. […] At the end of the 30 minutes, the flies were transferred to an untreated area. […] 1 ml of Composition 8c was distributed on the tile. […] 1 ml of Composition 8c was distributed on a tile. […] At the end of the 30 minutes, the flies were transferred to an untreated area.
1 ml of Composition 5a, was distributed on the tile. […] 1 ml of Composition 6a was distributed on the tile. […] 1 ml of Composition 7a was distributed on the tile.
1 ml of Composition 3 was distributed on the tile. […] 1 ml of Composition 9a was distributed on the tile. […] 1 ml of Composition 11a was distributed on a tile. […] 1 ml of Composition 12a was distributed on a tile.
1 ml of Composition 3 was distributed on the tile. […] 1 ml of Composition 17a was distributed on a tile. […] 1 ml of Composition 18a was distributed on a tile. […] Each experiment (A-C) was conducted in duplicate.
1 ml of Composition 23a was distributed on the tile. […] 1 ml of Composition 20a was distributed on a tile. […] Each experiment (A-B) was conducted in duplicate.
1 ml of Composition 3 was distributed on the tile. […] 1 ml of Composition 25a was distributed on a tile. […] Each experiment (A-B) was conducted in duplicate.
1 ml of Composition 23a was distributed on the tile. […] 1 ml of Composition 27a was distributed on a tile. […] Each experiment (A-B) was conducted in duplicate.
1 ml of Composition 26a was distributed on a tile. […] 1 ml of Composition 26b was distributed on a tile. […] 1 ml of Composition 26c was distributed on a tile.
1 ml of Composition 22a was distributed on a tile. […] 1 ml of Composition 22b was distributed on a tile. […] 1 ml of Composition 22c was distributed on a tile.
1 ml of Composition 23a was distributed on the tile. […] 1 ml of Composition 44a was distributed on a tile.
1 ml of Composition 33 was distributed on a tile. […] 1 ml of Composition 33 was distributed on a tile. […] At the end of the 30 minutes, the flies were transferred to an untreated area.
1 ml of Composition 1 was distributed on the tile. […] 1 ml of Composition 34 was distributed on a tile. […] 1 ml of Composition 34 was distributed on a tile. […] At the end of the 30 minutes, the flies were transferred to an untreated area.
1 ml of Composition 3 was distributed on the tile. […] 1 ml of Composition 31a was distributed on a tile. […] 1 ml of Composition 31b was distributed on a tile. […] 1 ml of Composition 31b was distributed on a tile. […] At the end of the 30 minutes, the flies were transferred to an untreated area. […] 1 ml of Composition 38a was distributed on a tile. […] 1 ml of Composition 38a was distributed on a tile. […] At the end of the 30 minutes, the flies were transferred to an untreated area.
G) According to the invention. 1 ml of Composition 40a was distributed on a tile. […] Subsequently, after waiting for the solvent to evaporate, 10 flies were placed on top of the treated til

Blatta orientalis = settings: Blatta orientalis; synergist applied with Cypermethrin
Procedure: Method: Contact test on non-porous tile measuring 400 cm^2 at a temperature of 28° C. Test duration: up to 72 hours after exposure of the insect to the insecticidal active substance.
(§1) Three tests were performed in parallel, A, B, and C, as follows: • A) Comparative. 1 ml of Composition 2 was applied to the tile. After waiting for the complete evaporation of the solvent, 10 cockroaches were placed on top of the treated tile, starting the test. • B) According to the invention. 1 ml of Composition 8b was distributed on the tile. After waiting for the complete evaporation of the solvent, 1 ml of Composition 2 was added to the same tile. Subsequently, after waiting for the solvent to evaporate, 10 cockroaches were placed on top of the treated tile, starting the test. • C) According to the invention. 1 ml of Composition 8b was distributed on a tile. After waiting for the complete evaporation of the solvent, 10 cockroaches were placed for 30 minutes on top of the treated tile. At the end of the 30 minutes, the cockroaches were transferred to an untreated area.
Method: Contact test on non-porous tile measuring 400 cm^2 at a temperature of 28° C. Test duration: up to 120 hours after exposure of the insect to the insecticidal active substance.
as §1, with “4a” for “2”, “8d” for “8b”, “After” for “Subsequently, after”
Six tests were performed in parallel, A, B, C, D, E and F, as follows: • A) Comparative. 1 ml of Composition 9b was distributed on the tile. After waiting for the complete evaporation of the solvent, 1 ml of Composition 4a was added to the same tile. Subsequently, after waiting for the solvent to evaporate, 10 cockroaches were placed on top of the treated tile, starting the test. • B) Comparative. 1 ml of Composition 9b was distributed on a tile. After waiting for the complete evaporation of the solvent, 10 cockroaches were placed for 30 minutes on top of the treated tile. At the end of the 30 minutes, the cockroaches were transferred to an untreated area. […] 1 ml of Composition 10b was distributed on the tile. After waiting for the complete evaporation of the solvent, 1 ml of Composition 4a was added to the same tile. Subsequently, after waiting for the solvent to evaporate, 10 cockroaches were placed on top of the treated tile, starting the test. • D) Comparative. 1 ml of Composition 10b was distributed on a tile. After waiting for the complete evaporation of the solvent, 10 cockroaches were placed for 30 minutes on top of the treated tile. At the end of the 30 minutes, the cockroaches were transferred to an untreated area. […] 1 ml of Composition 8d was distributed on the tile. After waiting for the complete evaporation of the solvent, 1 ml of Composition 4a was added to the same tile. Subsequently, after waiting for the solvent to evaporate, 10 cockroaches were placed on top of the treated tile, starting the test. • F) According to the invention. 1 ml of Composition 8d was distributed on a tile. After waiting for the complete evaporation of the solvent, 10 cockroaches were placed for 30 minutes on top of the treated tile. At the end of the 30 minutes, the cockroaches were transferred to an untreated area.

[1] = Musca domestica, single substance alone, 48 h, read-out: Mortality %/time (h)

Oleic alcohol [Composition 37]
Mortality %/time (h) (application) (Blattella germanica): 7/24 ^ %

O=[N+]([O-])NC1=NCCN1Cc1ccc(Cl)nc1 [Composition 36, Imidacloprid, reference compound]
Mortality % (Blattella germanica; Example 34, 25° C, insects on treated tile): 27%
Mortality %/time (h) (application) (Blattella germanica): 27/24 ^ %

CC1(C)C(C=C(Cl)Cl)C1C(=O)OC(C#N)c1cccc(Oc2ccccc2)c1 (centres unmarked) [Composition 4b, Cypermethrin]
Mortality % (Blatta lateralis; Example 31, 24 h): 0%
Mortality % (Blatta lateralis; Example 31, 48 h): 40%
Mortality %/time (h) (application) (Blatta lateralis; Blatta lateralis, 48 h): 40/48 ^ %

O=[N+]([O-])NC1=NCCN1Cc1ccc(Cl)nc1 [Composition 24, Imidacloprid]
Mortality % (Blatta lateralis; Example 16, 48 h): 20%
Mortality % (Blatta lateralis; Example 22, 48 h): 20%
Mortality % (Blatta lateralis; Example 26, 48 h): 20%
Mortality % (Blatta lateralis; Example 33, 48 h): 20%
Mortality %/time (h) (application) (Blatta lateralis; Blatta lateralis, 48 h): 20/48 ^ %

CCCCCCCCCCC(CO)CCCCCCCC (centres unmarked) [2-octyldodecanol]
synergizing effect on Cypermethrin (Musca domestica L.; Musca domestica L.): synergistic effect, comparable to the activity shown by PBO
mortality at 680 µg/mL (Musca domestica L.; [1]): 20%
synergizing effect on Cypermethrin (Blatta orientalis): superior to that shown with PBO

CCCCC(O)CO (centres unmarked) [Composition 31d, 1,2-hexandiol]
Mortality %/time (h) (application) (Blatta lateralis; Blatta lateralis, 48 h, listed as 1,2-hexandiol (0.07)): 20/48 ^ %

CCCCC(O)CO (centres unmarked) [Composition 31c, 1,2-hexandiol]
Mortality %/time (h) (application) (Blatta lateralis; Blatta lateralis, 48 h, listed as 1,2-hexandiol (0.05)): 14/48 ^ %

CCCCC(CC)COC(=O)OCC(CC)CCCC (centres unmarked) [bis(2-ethylhexyl)-carbonate]
synergizing effect on Cypermethrin (Musca domestica L.; Musca domestica L.): high synergizing effect
mortality at 680 µg/mL (Musca domestica L.; [1]): 19%
synergizing effect on Cypermethrin (Blatta orientalis): synergizing effect

CCCCC(O)CO (centres unmarked) [1,2-hexandiol]
synergizing effect on Azamethiphos (Musca domestica L.; Musca domestica L., synergist applied with Azamethiphos): excellent synergizing effect
synergizing effect on Cypermethrin (Musca domestica L.; Musca domestica L.): excellent synergizing effect
synergizing effect on Pyrethrins (Musca domestica L.; Musca domestica L., synergist applied with Pyrethrins): good synergizing effect
synergizing effect on Spinosad (Musca domestica L.; Musca domestica L., synergist applied with Spinosad): good synergizing effect
mortality at 390 µg/mL (Musca domestica L.; Musca domestica, single substance alone, 0.39 mg/ml, 48 h, read-out: Mortality %/time (h)): 4%
mortality at 680 µg/mL (Musca domestica L.; [1]): 7%
mortality at 1050 µg/mL (Musca domestica L.; Musca domestica, single substance alone, 1.05 mg/ml, 48 h, read-out: Mortality %/time (h)): 10%
mortality at 2340 µg/mL (Musca domestica L.; Musca domestica, single substance alone, 2.34 mg/ml, 48 h, read-out: Mortality %/time (h)): 23%
synergizing effect on Cypermethrin (Blatta lateralis; Blatta lateralis, synergist applied with Cypermethrin): good synergizing effect
synergizing effect on Imidacloprid (Blatta lateralis; Blatta lateralis, synergist applied with Imidacloprid): excellent synergizing effect
